Results published in patent US7868135B2, “Compositions of lipopeptide antibiotic derivatives and methods of use thereof” (priority 2003, dated 2011).

What was measured:
in vivo = settings: male, Sprague Dawley, rat, plasma, iv, 10 mg/kg
Procedure: Yet other exemplary in vivo models can be used to characterize the pharmacokinetics and pharmacodynamic parameters of antimicrobial compounds of this disclosure. Some parameters that can be measured include an in vivo half-life of a compound, elimination rate and clearance, volume of distribution, and bioavailability. For example, briefly, compounds can be administered as a single i.v. or oral (p.o.) dose in mice or rats. At various time points (ranging from 1 minute to 72 hours), blood from treated animals is collected and the concentration of lipopeptide derivative in the ex vivo plasma can be quantified by, for example, liquid chromatography with mass spectrometric detection (LC/MS). After quantification, pharmacokinetics parameters can be calculated using methods known in the art, such as a one compartment model with mono-exponential decay and linear regression analysis (see, e.g., Fantin et al., Antimicrob. Agents Chemotherap. 35: 1413. 1991).
A pharmacokinetic parameter that can be measured, and which aids in determining efficacy, after a single i.v. administration of an antimicrobial lipopeptide derivative of the instant disclosure is the systemic half-life of the compound. Briefly, test compounds were dissolved in a 5% mannitol solution (pH was then adjusted) to a concentration of 1 mg/mL (w/v). A single intravenous injection in the lateral caudal vein of Swiss CD1 mice (5 to 6 weeks old, female) or Sprague Dawley rats (male) was used to administer the lipopeptide derivative at a final dose of 10 mg/kg. At various time points (ranging from about 4 minutes to about 24 hours for mice, and 48 or 72 hours for rats) mice were sacrificed and blood was harvested. The concentration of lipopeptide derivative in ex vivo plasma was quantified using liquid chromatography (LC) with mass spectrometric detection (MS).

[1] = Acute toxicity, maximum tolerated dose (MTD); settings: Swiss CD1, mouse, in vivo, iv
Procedure: Another measure of toxicity is the maximum tolerated dose (MTD), which is determined as a dose level that is not accompanied by mortality or life-threatening toxicity. The dose ratio between toxic and therapeutic effect is the therapeutic index. […] The data obtained from these cell culture assays and animal studies can be used in formulating a dosage range that is not toxic for use in human subjects. […] The dosage may vary within this range depending upon the dosage form employed and the route of administration utilized. The exact formulation, route of administration and dosage can be chosen by the individual physician in view of the patient's condition or need thereof (see, e.g., Fingl et al., 1975, In: The Pharmacological Basis of Therapeutics, Chapter 1).
For example, to examine acute toxicity, lipopeptide antibiotics of the invention can be tested in an animal model, such as Swiss CD1 mice, to determine the MTD. In certain embodiments, the animals used to test toxicity of a particular compound can be approximately 5-6 weeks old at the start of the experiment and weigh 22-26 g. The lipopeptides may be administered intravenously (i.v.) into, for example, the caudal tail vein at dose levels that range from about 50 to about 500 mg/kg, or from about 75 to about 250 mg/kg, or from about 100 to about 200 mg/kg, or at a dose range at or below 100 mg/kg. The animals are generally observed immediately after administration, 1-2 hours post administration, 5-8 hours post administration, and once daily thereafter. Observations include both the activity level of the mouse as well as any physical side effects from the administered dose. The animal weight is recorded on day 0 (immediately before dosing) and on day 7.

Staphylococcus aureus = format: cell-based; settings: for Post Antibiotic Effect (hours) 0.5 × MIC: exposure one hour at 0.5 × MIC, S. aureus log phase; for Post Antibiotic Effect (hours) 1 × MIC: exposure one hour at 1 × MIC; for Post Antibiotic Effect (hours) 2 × MIC: exposure one hour at 2 × MIC; for Post Antibiotic Effect (hours) 4 × MIC: exposure one hour at 4 × MIC
Procedure: An exemplary pharmacokinetic parameter to aid in characterizing the properties of lipopeptide derivative compounds of the disclosure is post-antibiotic effect (PAE) of a lipopeptide derivative. For example, a bacterial culture with an initial count of 10^6 to 10^7 colony forming units per ml (CFU/ml) is treated with a certain concentration of lipopetide derivative for a certain time and a parallel (control) culture is left untreated. After treatment, the lipopetide derivative is removed from the culture (e.g., by dilution 1:1000 in fresh, lipopetide derivative-free medium), and the untreated culture is manipulated in the same way. Then the cultures are further incubated and monitored for bacterial growth over time. […] By way of background and not wishing to be bound by theory, a lipopeptide derivative having a measurable PAE activity will likely provide additional time for the host immune system to remove bacteria that might have survived antibiotic treatment and reproduced after the antibiotic is degraded, removed or filtered from the circulatory system. A longer PAE can influence the clinical outcome of antimicrobial therapy (i.e., a lower dose of a lipopetide derivative may be used to treat an infection or the frequency of a dosing regimen can be reduced).
After removal of the lipopeptide compounds, bacterial titre was determined each hour to monitor bacterial re-growth. The PAE duration is defined as the difference in time required for antimicrobial exposed bacterial cells versus unexposed bacterial cells to achieve an increase of 1 log10 unit in CFU/mL.

[2] = system: S. pneumoniae (SPN 0032, ATCC 10813); assay: Intraperitoneal murine model of protection against infection (ED50, Table 21); format: in vivo, Streptococcus pneumoniae; settings: Swiss CD1 mice infected i.p., compound i.v.

SMILES	half-life (in vivo)	MTD at 7 days [1]	MIC used for the PAE experiment (Staphylococcus aureus)	Post Antibiotic Effect (hours) 0.5 × MIC (Staphylococcus aureus)	Post Antibiotic Effect (hours) 1 × MIC (Staphylococcus aureus)	Post Antibiotic Effect (hours) 2 × MIC (Staphylococcus aureus)	Post Antibiotic Effect (hours) 4 × MIC (Staphylococcus aureus)	ED50 in Mice, S. pneumoniae (SPN0032) [2]
CCCCCCCCCCCCCCC(=O)NC(CC(=O)O)C(=O)NC1C(=O)N2CCCCC2C(=O)NC(C(C)C(=O)O)C(=O)NC(CC(=O)O)C(=O)NCC(=O)NC(CC(=O)O)C(=O)NCC(=O)NC(C(C)NC(=O)CNC(=O)[C@@H](N)CCCCN)C(=O)NC(C(C)C)C(=O)N2CCCC2C(=O)NC1C (stereo partly drawn) [Compound 4, C15-Amphomycin-9-Gly-Lys]	1.09 h	200 to 400 mg/kg	1 µg/mL	0.6 h	0.7 h	1.9 h	3.0 h	–
CCCCCCCCCCCCCCC(=O)NC(CC(=O)O)C(=O)NC1C(=O)N2CCCCC2C(=O)NC(C(C)C(=O)O)C(=O)NC(CC(=O)O)C(=O)NCC(=O)NC(CC(=O)O)C(=O)NCC(=O)NC(C(C)NC(=O)CCN)C(=O)NC(C(C)C)C(=O)N2CCCC2C(=O)NC1C (stereo not drawn) [Compound 147, C15-Amphomycin-9-(β-Ala)]	4.58 h	–	1 µg/mL	1.6 h	1.6 h	1.9 h	1.0 h	0.65 mg/kg
CCCCCCCCCCCCCCC(=O)NC(CC(=O)O)C(=O)NC1C(=O)N2CCCCC2C(=O)NC(C(C)C(=O)O)C(=O)NC(CC(=O)O)C(=O)NCC(=O)NC(CC(=O)O)C(=O)NCC(=O)NC(C(C)NC(=O)CN(C)C(=O)[C@@H](N)CCCCN)C(=O)NC(C(C)C)C(=O)N2CCCC2C(=O)NC1C (stereo partly drawn) [Compound 199, C15-Amphomycin-9-Sar-Lys]	–	200 to 400 mg/kg	–	–	–	–	–	–
